Source: PMC7615676, “Short-course combination treatment for experimental chronic Chagas disease” (Science translational medicine, 2023)
In brackets after ≈: the same amount, converted by molar mass. Like-named read-outs stand apart in the source and are kept apart here. Values belong to the compound of their own block, whether it stands above or below them.

Tests used:
[1] = chromatographic LogD assay; assay type: physicochemical; conditions: reversed phase HPLC column (Gemini NX C18), pH 7.4; read-out: Chrom logD pH 7.4
Description: The chromatographic hydrophobicity index (CHI) values were measured using reversed phase HPLC column (50 mm × 2 mm, 3 μm Gemini NX C18, Phenomenex, U.K.) with fast acetonitrile gradient at starting mobile phase at pH 7.4. CHI values were derived directly from the gradient retention times by using a calibration line obtained for standard compounds. The CHI value approximates to the volume % organic concentration when the compound elutes. CHI was linearly transformed into ChromlogD by least-squares fitting of experimental CHI values to calculated log P (ClogP) values for over 20K research compounds using the following formula: ChromlogD = 0.0857CHI − 2.00. The average error of the assay is ±3 CHI units or ± 0.25 ChromlogD.

HepG2 cells = test: general cytotoxicity assay in HepG2 cells; assay type: cell-based; conditions: Homo sapiens, HepG2, 48 h, CellTiter-Glo
Description: This assay was previously described ([36]). Briefly, actively growing HepG2 cells were removed from a T-175 TC flask using 5 ml Eagle’s MEM (containing 10 % FBS, 1 % NEAA, 1 % penicillin/ streptomycin. Carbon source is D-glucose at 1 g/l) and dispersed in the medium by repeated pipetting. Seeding density was checked to ensure that new monolayers were not more than 50 % confluent at the time of harvesting. Cell suspension was added to 500 ml of the same medium at a final density of 1.2 x 10^5 cells/ml. This cell suspension was dispensed (25 μl, 3000 cells per well) into 384-well clear-bottom plates using a Multidrop Combi dispenser. Prior to addition of the cell suspension, the screening compounds (250 nl) were predispensed into the plates with an EchoH liquid handler. Plates were incubated for 48 h at 37°C, 5% CO2. After incubation, plates equilibrated at room temperature for 30 min before proceeding to develop the luminescent signal. The signal developer, CellTiter-Glo Reagent, was allowed to equilibrate at room temperature for 30 min and added to the plates ([…]) using a Multidrop Combi dispenser. Plates were left for 10 min at room temperature for stabilization and then read using a ViewLux.

FaSSIF solubility assay = assay type: physicochemical; conditions: pH 6.5, 4 h
Description: Solubility of test compounds in fasted simulated intestinal fluid (FaSSIF) was determined at pH 6.5 after 4 h equilibration at rt. An amount of1 mL of FaSSIF buffer (3 mM sodium taurocholate, 0.75 mM lecithin in sodium phosphate buffer at pH 6.5) was added to manually weighed 1 mg of solid compound in a 2 mL HPLC autosampler vial. The resulting suspension was shaken at 900 rpm for 4 h at rt and then transferred to a Multiscreen HTS, 96-well solubility filter plate. The residual solid was removed by filtration. The supernatant solution was quantified by HPLC−UV using single-point calibration of a known concentration of the compound in DMSO. The dynamic range of the assay was 1−1000 μg/mL.

[2] = tested on: intracellular T. cruzi amastigotes, strain Silvio X10/7 A1; test: intracellular T. cruzi amastigote potency assay; assay type: cell-based; conditions: Trypanosoma cruzi
Vero host cells = test: cytotoxicity against host cells in intracellular amastigote assay; assay type: cell-based; conditions: host cell cytotoxicity; for EC50: Chlorocebus sabaeus, Vero
Property Forecast Index = assay type: physicochemical; conditions: number of aromatic rings + ChromLogD at pH 7.4
[3] = kinetic aqueous solubility (CLND); assay type: physicochemical; conditions: phosphate buffered saline, aqueous buffer, kinetic from dmso stock, pH 7.4
Description: The eluent is quantified by suitably calibrated flow injection CLND. This assay has a dynamic range between the lower detection limit of 1 and 500 μM, governed by the protocol’s 1:20 dilution into pH 7.4 phosphate buffer solution from nominal 10 mM DMSO stock.

[4] = tested on: T. cruzi culture derived trypomastigotes, strain Silvio X10/7 A1; test: trypomastigote assay; assay type: cell-based; conditions: Trypanosoma cruzi
Description: Trypomastigote assays using strain Silvio X10/7 subclone A1 were carried out as described in ([19]). Parasite culture and potency determinations for panel of strains were performed as in ([19]). Strains used were M6241 clone 6 (DTU III), ERA clone 2 (DTU IV), PAH179 clone 5 (DTU V) and CL Brener-Luciferase (PpyRE9h-expressing T. cruzi, same strain that is used in animal model studies ([67])) (DTU VI). […] For Y strain compound exposure time was 3 days. Rate-of-kill assays were carried out as described in ([39]).

T. cruzi CYP51 = T. cruzi CYP51 (Trypanosoma cruzi, UniProt Q7Z1V1); test: T. cruzi CYP51 biochemical assay
[5] = biological target: T. cruzi complex III (epimastigote lysates) (Trypanosoma cruzi, UniProt Q9T479); test: T. cruzi complex III assay; assay type: biochemical; conditions: decylubiquinol substrate
Description: Complex III activity within these lysates was monitored in the presence and absence of compound 3, compound 5 and related analogues from this series, using decylubiquinol as a pseudo-substrate ([43]).
Measurement of complex III activity and inhibition were performed as described previously ([43]).

[6] = tested on: wild-type T. cruzi epimastigotes; test: epimastigote drug sensitivity assay, wild-type; assay type: cell-based; conditions: Trypanosoma cruzi
Description: (§1) T. cruzi epimastigotes from the Silvio strain (MHOM/BR/78/Silvio; clone X10/7A) were grown at 28°C in RTH/FBS medium ([80]).
(§2) T. cruzi epimastigote assays carried out as described previously ([43]).

[7] = tested on: T. cruzi epimastigotes bearing mutations in cytochrome b; test: epimastigote drug sensitivity assay, cytochrome b mutant / resistant lines; assay type: cell-based, Trypanosoma cruzi; conditions: for EC50: Trypanosoma cruzi
Description: as §1, §2
Compound-resistant cell lines were generated by subculturing clones of wild-type T. cruzi epimastigotes in the continuous presence of compound 3 or compound 5. Starting at sublethal concentrations, drug concentrations in 3 independent cultures were increased in a stepwise manner, usually by 2-fold. When parasites were able to survive and grow in compound concentrations equivalent to >30-fold their established EC50 value, they were cloned by limiting dilution in the presence of compound. Three independent clones were selected from each compound for further study.

[8] = design: method as in PMID 21073628, PMID 20932171; conditions: patients; cited from earlier work
[9] = tested on: intracellular T. cruzi Silvio X10/7 A1 in Vero cells; test: washout outgrowth assay; assay type: cell-based, Trypanosoma cruzi; conditions: 8-days treatment, BNZ at 12.5× EC50 (Fig. S7)
Description: Washout outgrowth assay: Vero cells were infected overnight in T600 flasks at a multiplicity of infection (MOI) 5 with T. cruzi Silvio X10/7 A1 trypomastigotes, followed by washing of the Vero monolayer to remove free trypomastigotes. 24 hours later the monolayer was trypsinised, 5.3 x 10^6 Vero cells were plated in T75 tissue culture flasks (in 20 ml MEM-Glutamax (ThermoFisher), 1% Fetal Calf Serum (FCS)), and treatment was started. For ten-day treatments, medium with compounds was replaced after the initial 5 days. For 16 day treatments the compounds were replaced every four days. For compound washout, all medium was aspirated, and flasks were washed three times with 10 ml serum-free MEM medium followed by a final aspiration and addition of 20 ml MEM-Glutamax (ThermoFisher) supplemented with 1% FCS. The cultures were then maintained until trypomastigotes were detected by light microscopy. Medium was replaced twice weekly and prior to each medium replacement microscopic evaluation was carried out (five fields per flask) for up to 60 days post washout. Robustness of the data was confirmed by profiling multiple compounds from the pyrrolopyrimidine series in a single experiment (compounds 2,3 and 4 in Fig. 2 and Fig. S17) as well as comparing results from independent experiments (compound 2 in Fig. 2, Fig. S5 and Fig. S7).

[10] = intracellular amastigotes Silvio X10/7 A1, 96 h, ± SD, min. three experiments, read-out: Amastigotes pEC50 (converted)
[11] = read-out: Vero pEC50 (converted)
[12] = read-out: Trypomastigotes pEC50 (converted)

Chain of T. cruzi CYP51 (Q7Z1V1 whole entry): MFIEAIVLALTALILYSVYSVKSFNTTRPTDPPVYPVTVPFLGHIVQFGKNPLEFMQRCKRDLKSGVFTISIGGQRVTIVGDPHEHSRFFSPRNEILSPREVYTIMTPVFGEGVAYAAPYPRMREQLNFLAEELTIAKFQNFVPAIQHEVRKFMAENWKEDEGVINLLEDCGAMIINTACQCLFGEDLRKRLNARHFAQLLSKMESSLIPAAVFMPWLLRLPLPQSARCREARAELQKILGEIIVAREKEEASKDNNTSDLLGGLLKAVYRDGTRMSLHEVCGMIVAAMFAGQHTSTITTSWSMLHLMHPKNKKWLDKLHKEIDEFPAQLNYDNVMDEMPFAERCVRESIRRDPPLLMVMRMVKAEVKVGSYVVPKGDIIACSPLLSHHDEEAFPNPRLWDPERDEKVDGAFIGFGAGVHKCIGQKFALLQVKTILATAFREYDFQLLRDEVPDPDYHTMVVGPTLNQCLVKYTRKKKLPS
Chain of T. cruzi complex III (epimastigote lysates) (Q9T479 entry or part of it, one chain of several): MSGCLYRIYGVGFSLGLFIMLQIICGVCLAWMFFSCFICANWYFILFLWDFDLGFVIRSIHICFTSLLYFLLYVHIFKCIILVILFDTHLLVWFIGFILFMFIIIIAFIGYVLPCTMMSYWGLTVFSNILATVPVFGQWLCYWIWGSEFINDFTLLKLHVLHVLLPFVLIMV

- chromatographic logD [1]: 3.2
- FaSSIF pH 6.5 (FaSSIF solubility assay): 456 µg/mL
- PFI (Property Forecast Index): 6.2
- solubility at 1 h [3]: 110 µg/mL (≈ 410 µM)
- EC50 ([4]; read-out: Trypomastigotes EC50): 250 nM
- EC50 [4, 12]: 251 nM
- IC50 (T. cruzi CYP51): > 100000 nM
- inhibition of recombinant T. cruzi CYP51 (T. cruzi CYP51; direct biochemical assay): did not inhibit
SMILES: COc1ccccc1-c1c(C)[nH]c2nc(N)nc(C)c12 [Compound 1, 5-(2-methoxyphenyl)-4,6-dimethyl-7H-pyrrolo[2,3-d]pyrimidin-2-amine]
- EC50 (HepG2 cells; read-out: HepG2 EC50): > 100000 nM
- EC50 [2, 10]: 316 nM
- EC50 ([2]; read-out: Amastigotes EC50): 320 nM
- EC50 (Vero host cells; read-out: Vero EC50): > 50000 nM
- EC50 (Vero host cells; [11]): > 31600 nM
- Vero pEC50 (Vero host cells): < 4.3

SMILES: COc1cc(F)ccc1-c1c(C)n(C)c2nc(N)nc(C)c12 [Compound 5, 5-(4-Fluoro-2-methoxyphenyl)-4,6,7-trimethyl-7H-pyrrolo[2,3-d]pyrimidin-2-amine]
- IC50 [5]: 1 ± 0.2 nM
- EC50 ([6]; read-out: EC50 wild-type): 2.4 ± 0.1 nM
- EC50 ([6]; read-out: EC50 wild-type epimastigotes): 11.3 ± 0.5 nM
- EC50 ([6]; Table 2, wild-type epimastigotes, read-out: EC50 WT): 2 ± 0.1 nM
- EC50 ([7]; read-out: EC50 F222L): 486 ± 18 nM
- EC50 ([7]; read-out: EC50 G36C/L197F cytb line): 1.2 ± 0.1 nM
- EC50 ([7]; read-out: EC50 G36C/L197I cytb line): 37 ± 2 nM
- EC50 ([7]; read-out: EC50 L197F cytb line): 1.1 ± 0.1 nM
- EC50 ([7]; read-out: EC50 L197I): 21 ± 0.5 nM
- EC50 ([7]; read-out: EC50 compound 5-resistant clone RES1): 417 ± 11 nM
- EC50 ([7]; read-out: EC50 compound 5-resistant clone RES2): 585 ± 30 nM
- EC50 ([7]; read-out: EC50 compound 5-resistant clone RES3): 635 ± 33 nM
- fold change from WT, L197I ([7]; compound 3-resistant line (L197I)): 10 fold
- fold change from WT, F222L ([7]; compound 5-resistant line (F222L)): 224 fold
- cross-resistance of G36C and L197I epimastigotes ([7]; versus wild-type): 9 fold

SMILES: CC1CS(=O)(=O)CCN1/N=C/c1ccc([N+](=O)[O-])o1 (stereo not drawn) [NFX, nifurtimox]
- discontinuation of treatment prior to completion due to adverse side-effects [8]: ≤ 43%

- chromatographic logD [1]: 6.1
- PFI (Property Forecast Index): 11.1
- solubility at 1 h [3]: 14 µg/mL (≈ 20 µM)
- EC50 ([4]; read-out: Trypomastigotes EC50): > 50000 nM
- EC50 [4, 12]: > 50100 nM
SMILES: CC[C@@H]([C@H](C)O)n1ncn(-c2ccc(N3CCN(c4ccc(OC[C@@H]5CO[C@@](Cn6cncn6)(c6ccc(F)cc6F)C5)cc4)CC3)cc2)c1=O [Posaconazole, reference compound]
- EC50 (HepG2 cells; read-out: HepG2 EC50): > 100000 nM
- EC50 (HepG2 cells; read-out: HepG2 pEC50 (converted)): > 100000 nM
- EC50 [2, 10]: 2.51 nM
- EC50 ([2]; read-out: Amastigotes EC50): 3 nM
- EC50 (Vero host cells; read-out: Vero EC50): > 50000 nM
- EC50 (Vero host cells; [11]): > 50100 nM
- washout outcome in combination with BNZ [9]: failed to eliminate all parasites
